Measurements as given in ChEMBL document CHEMBL1201862, “PubChem BioAssay data set” (2004).
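Grown in 96-well plates, cells were treated for 48 hours with each compound at five concentrations. Insufficient inhibition: endpoint recorded as highest concentration tested. At the GI50, growth is halved.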 Calls of active or inactive are those of the source. No stated cut-off is given here; in the data, active = GI50 up to about 1.1 µM and inactive = higher.

How the values were obtained:
Assay in all cases: NCI-60 cell line screen, 48 h
NCI/ADR-RES = tested on: NCI/ADR-RES
SF-268 = tested on: SF-268
A498 = tested on: A498
HCT-116 = tested on: HCT-116
SK-MEL-28 = tested on: SK-MEL-28
HL-60 = tested on: HL-60
MDA-MB-435 = tested on: MDA-MB-435
HOP-92 = tested on: HOP-92
EKVX = tested on: EKVX
HCT-15 = tested on: HCT-15
HCC 2998 = tested on: HCC 2998
Malme-3M = tested on: Malme-3M
SF-539 = tested on: SF-539
OVCAR-8 = tested on: OVCAR-8
NCI-H522 = tested on: NCI-H522
PC-3 = tested on: PC-3
NCI-H23 = tested on: NCI-H23
NCI-H226 = tested on: NCI-H226
CAKI-1 = tested on: CAKI-1
M14 = tested on: M14

Row | SMILES | GI50 (NCI/ADR-RES) | GI50 (SF-268) | GI50 (A498) | GI50 (HCT-116) | GI50 (SK-MEL-28) | GI50 (HL-60) | GI50 (MDA-MB-435) | GI50 (HOP-92) | GI50 (EKVX) | GI50 (HCT-15) | GI50 (HCC 2998) | GI50 (Malme-3M) | GI50 (SF-539) | GI50 (OVCAR-8) | GI50 (NCI-H522) | GI50 (PC-3) | GI50 (NCI-H23) | GI50 (NCI-H226) | GI50 (CAKI-1) | GI50 (M14)
1 | Cc1ccc(N/N=C2\C3=C(CCC(C)(C)O3)C(=O)c3ccccc32)cc1 | 25.6 µM (inactive) | 30.3 µM (inactive) | 18.3 µM (inactive) | 21.3 µM (inactive) | 21.9 µM (inactive) | 15.2 µM (inactive) | 17.9 µM (inactive) | 43.5 µM (inactive) | 25.5 µM (inactive) | 27.5 µM | 19.7 µM (inactive) | 9.16 µM (inactive) | 39.3 µM (inactive) | 34.4 µM (inactive) | 32.4 µM (inactive) | 37.6 µM (inactive) | 10.8 µM (inactive) | 35.2 µM (inactive) | 28.2 µM (inactive) | 16.9 µM (inactive)
2 | O=C(Cc1cc(=O)oc2cc(O)ccc12)N/N=C/c1ccc(N(CCCl)CCCl)cc1 | 84.1 µM (inactive) | 13.4 µM (inactive) | 22.3 µM (inactive) | 16.6 µM (inactive) | 15.1 µM (inactive) | 14.5 µM (inactive) | 19.8 µM (inactive) | 20.8 µM (inactive) | 17.5 µM (inactive) | > 100 µM | > 100 µM (inactive) | 20.5 µM (inactive) | 18 µM (inactive) | 15.1 µM (inactive) | 20.9 µM (inactive) | 17.9 µM (inactive) | 22.3 µM (inactive) | 17.7 µM (inactive) | 12.7 µM (inactive) | 19.5 µM (inactive)
3 | COc1cc(Nc2ccc3c(c2)CCC3)nc(OC)n1 | 23.1 µM (inactive) | 23.9 µM (inactive) | 24.3 µM (inactive) | 38.2 µM (inactive) | > 100 µM (inactive) | 29.6 µM (inactive) | > 100 µM (inactive) | 32.4 µM (inactive) | 17.1 µM (inactive) | 27.8 µM | 29.7 µM (inactive) | 32.1 µM (inactive) | 38.9 µM (inactive) | 34.8 µM (inactive) | 21.4 µM (inactive) | 27.1 µM (inactive) | 36 µM (inactive) | 32.5 µM (inactive) | 37.9 µM (inactive) | 43.3 µM (inactive)
4 | Cc1ccc2c(c1)C(=O)C(Cc1ccccc1C(=O)O)C2 (centres undefined) | > 100 µM (inactive) | > 100 µM (inactive) | > 100 µM (inactive) | > 100 µM (inactive) | > 100 µM (inactive) | > 100 µM (inactive) | > 100 µM (inactive) | > 100 µM (inactive) | > 100 µM (inactive) | > 100 µM | > 100 µM (inactive) | > 100 µM (inactive) | > 100 µM (inactive) | > 100 µM (inactive) | > 100 µM (inactive) | > 100 µM (inactive) | > 100 µM (inactive) | > 100 µM (inactive) | > 100 µM (inactive) | > 100 µM (inactive)
5 | C=CCC(CNC(=O)OCc1ccccc1)OC(=O)OCc1ccccc1 (centres undefined) | > 100 µM (inactive) | > 100 µM (inactive) | > 100 µM (inactive) | 51.9 µM (inactive) | > 100 µM (inactive) | 34 µM (inactive) | 57 µM (inactive) | 52.6 µM (inactive) | 33.4 µM (inactive) | 74.3 µM | > 100 µM (inactive) |  | > 100 µM (inactive) | 69 µM (inactive) | 62.1 µM (inactive) | 48.3 µM (inactive) | 43.9 µM (inactive) | > 100 µM (inactive) | > 100 µM (inactive) | > 100 µM (inactive)
6 | O=C(O)c1cc(-c2ccncc2)nc2ccccc12 | > 100 µM (inactive) | > 100 µM (inactive) | > 100 µM (inactive) | > 100 µM (inactive) | > 100 µM (inactive) | > 100 µM (inactive) | > 100 µM (inactive) | > 100 µM (inactive) | > 100 µM (inactive) | > 100 µM | > 100 µM (inactive) | > 100 µM (inactive) | > 100 µM (inactive) | > 100 µM (inactive) | > 100 µM (inactive) | > 100 µM (inactive) | > 100 µM (inactive) | > 100 µM (inactive) | > 100 µM (inactive) | > 100 µM (inactive)
7 | O=C(/C=C/c1ccccc1)Oc1ccc(C(=O)/C=C/c2ccccc2)cc1 | 12.1 µM (inactive) | 12.3 µM (inactive) | > 10 µM (inactive) | 9.64 µM (inactive) | 12.4 µM (inactive) | 2.84 µM (inactive) | 4.65 µM (inactive) | 17.1 µM (inactive) | 13.3 µM (inactive) | 4.29 µM | 8.47 µM (inactive) | > 10 µM (inactive) | 3.24 µM (inactive) | 10.2 µM (inactive) | 11.4 µM (inactive) | 9.31 µM (inactive) | 10.6 µM (inactive) | 34.4 µM (inactive) | 13.1 µM (inactive) | 14.1 µM (inactive)
